Patent publication US8623844B2, “Fosaprepitant dimeglumine intermediate, neutral fosaprepitant, and amorphous fosaprepitant dimeglumine and processes for their preparations” (priority 2008, dated 2014)

Assays:
[1] = Stability studies of amorphous form, series of XRPD spectra (FIG. 7); format: physicochemical; details: about 2° C. to about 8° C., relative humidity less than about 60%, about 7 days to about 2 months
Procedure: The diffractogram was obtained using a Powder X-ray Diffractometer (Philips X'Pert Pro, PANalytical®) with a Cu radiation of λ=1.540598Å. The measurements were carried out from 2 degrees to 50 degrees with times per step of 50 seconds.
The stability data, shown as series of XRPD scans, are substantially in accordance with FIG. 7.

[2] = cited from earlier work

SMILES	stability of amorphous polymorphic form (XRPD) [1]	degradation on storage ([2]; normal ambient temperatures, stored at −20° C. to avoid degradation, J. Med. Chem. 2000, 43, 1234-1241)	stability of amorphous form on exposure ([2]; normal room temperature, as well as about 2° C.-8° C., transforms into crystalline form)
CNC[C@H](O)[C@@H](O)[C@H](O)[C@H](O)CO.CNC[C@H](O)[C@@H](O)[C@H](O)[C@H](O)CO.C[C@@H](O[C@H]1OCCN(Cc2nc(=O)n(P(=O)(O)O)[nH]2)[C@H]1c1ccc(F)cc1)c1cc(C(F)(F)F)cc(C(F)(F)F)c1 [amorphous fosaprepitant dimeglumine, 1-deoxy-1-(methylamino)-D-glucitol[3-[[(2R,3S)-2-[(1R)-1-[3,5-bis(trifluoromethyl)phenyl]-ethoxy]-3-(4-fluorophenyl)-4-morpholinyl]methyl]-2,5-dihydro-5-oxo-1H-1,2,4-triazol-1-yl]phosphonate (2:1) (salt)]	substantially stable	–	–
CNC[C@H](O)[C@@H](O)[C@H](O)[C@H](O)CO.CNC[C@H](O)[C@@H](O)[C@H](O)[C@H](O)CO.C[C@@H](O[C@H]1OCCN(Cc2nn(P(=O)(O)O)c(=O)[nH]2)[C@H]1c1ccc(F)cc1)c1cc(C(F)(F)F)cc(C(F)(F)F)c1	–	degrades at normal ambient temperatures	loses its stability
